Experimental findings from patent US20220396819A1, “METHOD FOR PRODUCING PEPTIDE HAVING PHYSIOLOGICAL ACTIVITY, AND PEPTIDE COMPRISING SHORT LINKER” (priority 2019, published 2022) are described below.

Holding throughout (format): cell-based
Assay [1] concerns receptor tyrosine kinase (RTK). Put plainly: RTK specificity, Proteome Profiler Human Phospho-RTK Array Kit, HEK293E cells. The note with it: 200 ng/mL peptide or 100 ng/mL HGF, 10 minutes, FIG. 10. As to the method: The receptor tyrosine kinase (RTK) specificity of the HGF-PAS dimer peptide was evaluated using Proteome Profiler Human Phospho-RTK Array Kit (R&D Systems).
HEK293E cells confluent in a 10 cm cell culture dish were starved by culturing for 24 hours in D-MEM medium containing 0.5% FBS (Thermo Fisher Scientific) and penicillin-streptomycin (Nacalai Tesque). The starved HEK293E cells were stimulated with 200 ng/mL AET-PAS-aMD4dY-PEG11 for 10 minutes. As a positive control, 100 ng/mL HGF was similarly stimulated for 10 minutes. As a negative control, PBS was added and stimulated for 10 minutes (Mock group). After removing the medium and washing the cells once with PBS, the cells were lysed by adding 1 mL of Lysis buffer 17 containing a Protease inhibitor cocktail (Nacalai Tesque). The lysate solution was centrifuged at 14,000 G for 5 minutes to obtain the supernatant as a lysate.
The lysate was analyzed using Proteome Profiler Human Phospho-RTK Array Kit. Molecular Imager ChemiDoc XRS System (Bio-Rad) was used to detect chemiluminescence.

The test system of assay [2] is HuCCT1 cells. Put plainly: Cell migration activity, Transwell, HuCCT1 cells. The note with it: 100 ng/mL HGF or 200 ng/mL peptide, 24 hours, FIGS. 13, 14. As to the method: HGF has been reported to promote cell migration ability by activating Met (K. Ito, et al. Nat. Commun. 6, 6373, 2015). Therefore, HuCCT1 cell culture was used to evaluate whether the HGF-PAS dimer peptide had the same activity of promoting cell migration as HGF.
To Transwell inserts for 24-well (pore size 3.0 m, Corning), 20,000 HuCCT1 cells suspended in low serum medium (RPMI 1640 medium with 0.5% FBS) were added. A low serum medium containing 100 ng/mL HGF or 200 ng/mL AET-PAS-aMD4dY-PEG11 was added to the lower layer. After culturing for 24 hours under the conditions of 37° C. and 5% CO2, the Transwell inserts were washed 3 times with PBS and cell-fixed and stained with methanol containing 0.5% Crystal Violet (Nacalai Tesque) for 10 minutes. Immobilized and stained Transwell inserts were washed with distilled water. The cells inside the inserts were removed with a scraper. The cells migrated to the outside of the inserts and stained were photographed in the bright field observation mode of a BZ-X microscope (Keyence).
The migration ability was calculated as (area of stained region)/(insert area) and as a relative value (Relative migration efficiency) to the value of the non-added group (Mock) (N=2).

For assay [3], the system named is HuCCT1 cells. Nature of the assay: Tubular structure formation of HuCCT1 cells in collagen gel. The note with it: 40 ng/mL, day 7. From the text:
It is known that HGF is allowed to act on HUVEC cells and HuCCT1 cells contained in collagen gel to form a tubular structure (K. Ito, et al. Nat. Commun. 6, 6373, 2015). It has also been reported that a Met full agonist having a function similar to that of HGF can form a tubular structure in the above cells, whereas a partial agonist having only a partial function cannot promote the formation of a tubular structure (W. Miao, et al. Int. J. Mol. Sci. 19, 3141, 2018). Therefore, it was decided to confirm whether the HGF-PAS dimer peptide was a full agonist or a partial agonist by using a tubular structure formation experiment using HuCCT1 cells.
To 8 equivalents of CellMatrix type IA (Nitta Gelatin), 1 equivalent of 10-fold concentrated D-MEM/F12 (Thermo Fisher Scientific) and 1 equivalent of reconstitution buffer (22 g/L sodium bicarbonate, 47.7 g/L HEPES, 0.05N sodium hydroxide aqueous solution) were mixed in order on ice. HuCCT1 cells were added at 25,000 cells per mL of the mixture and mixed on ice. To a 48-well cell culture plate, 400 μL of the above mixture was added, and the mixture was allowed to stand for 4 hours under the conditions of 37° C. and 5% CO2 for gelation. Onto the formed intracellular encapsulated collagen gel, 500 μL of RPMI 1640 medium containing 10% FBS was added. The cell-stimulating group was cultured by adding 35 ng/mL HGF or 40 ng/mL AET-PAS-aMD4dY-PEG11. […]

Positions of bridges follow the written chain, without caps; N, C: chain ends. No end group written: not given here.

Consider “HGF: recombinant human HGF (rhHGF, R&D Systems)”, for which, in assay [1], the “RTK phosphorylation (specificity)” value is recorded as “Met was specifically phosphorylated”. The cell migration entry in assay [2] was “proportion of the cells migrating to the lower part of the Transwell inserts increased”.

On to “AETCRQFNRRTHEVWNLDCGAAPAAPAPAAPAAPAPAAPAAPGCRQFNRRTHEVWNLDC (disulfide 4-19, 44-59; also: PEG11) [AET-PAS-aMD4dY-PEG11]”, for which the “RTK phosphorylation (specificity)” value in assay [1] was “Met was specifically phosphorylated”. Moreover, the cell migration result in assay [2] was “promoted cell migration”. In addition, in assay [3], the “agonist type (full or partial) for Met” value was “full agonist for Met”.
